Measured values reported in PubChem BioAssay (NCI).
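In this assay, cells in 96-well plates receive the compound at five concentrations for 48 hours. Endpoints are linearly interpolated between the surrounding concentrations. GI50 marks 50% less growth. TGI marks complete inhibition of growth.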

Experiments:
Test in all cases: DTP human tumour cell line panel, 48 h
SK-MEL-28 melanoma = system: SK-MEL-28 melanoma
U251 CNS = system: U251 CNS
SF-539 CNS = system: SF-539 CNS
OVCAR-3 ovarian = system: OVCAR-3 ovarian
K-562 leukemia = system: K-562 leukemia
SNB-19 CNS = system: SNB-19 CNS
LOX IMVI melanoma = system: LOX IMVI melanoma
RXF 393 renal = system: RXF 393 renal
HS 578T breast = system: HS 578T breast
DU-145 prostate = system: DU-145 prostate

Structure (SMILES): COc1ccc(/C=C2\N=C3N(Cc4ccccc4)C=C(N)N3C2=O)cc1
- TGI (SK-MEL-28 melanoma): > 100 µM
- TGI (U251 CNS): 92.3 µM
- TGI (SF-539 CNS): > 100 µM
- TGI (OVCAR-3 ovarian): > 100 µM
- TGI (K-562 leukemia): > 100 µM
- TGI (SNB-19 CNS): 48.2 µM
- TGI (LOX IMVI melanoma): > 100 µM
- TGI (RXF 393 renal): > 100 µM
- TGI (HS 578T breast): 73 µM
- TGI (DU-145 prostate): > 100 µM

Structure (SMILES): COc1cc2ccc(C(C)NCC#N)cc2cc1OC (stereo unspecified)
- TGI (SK-MEL-28 melanoma): > 100 µM
- TGI (U251 CNS): > 100 µM
- TGI (SF-539 CNS): > 100 µM
- TGI (OVCAR-3 ovarian): > 100 µM
- TGI (K-562 leukemia): > 100 µM
- TGI (SNB-19 CNS): > 100 µM
- TGI (LOX IMVI melanoma): > 100 µM
- TGI (RXF 393 renal): > 100 µM
- TGI (HS 578T breast): > 100 µM
- TGI (DU-145 prostate): > 100 µM

Structure (SMILES): CC[P+](c1ccccc1)(N(C)C)N(C)C
- TGI (SK-MEL-28 melanoma): > 100 µM
- TGI (U251 CNS): > 100 µM
- TGI (SF-539 CNS): > 100 µM
- TGI (OVCAR-3 ovarian): > 100 µM
- TGI (K-562 leukemia): > 100 µM
- TGI (SNB-19 CNS): > 100 µM
- TGI (LOX IMVI melanoma): > 100 µM
- TGI (RXF 393 renal): > 100 µM
- TGI (HS 578T breast): > 100 µM
- TGI (DU-145 prostate): > 100 µM

Structure (SMILES): COc1cc2c(cc1OCCN1CCN(CCOc3cc4c(cc3OC)C(=O)N3CCC[C@H]3C=N4)CC1)N=C[C@@H]1CCCN1C2=O
- TGI (SK-MEL-28 melanoma): > 100 µM
- TGI (U251 CNS): > 89.7 µM
- TGI (SF-539 CNS): > 64.3 µM
- TGI (OVCAR-3 ovarian): 66.8 µM
- TGI (K-562 leukemia): > 60.5 µM
- TGI (SNB-19 CNS): > 100 µM
- GI50 (LOX IMVI melanoma): > 100 µM
- TGI (LOX IMVI melanoma): > 100 µM
- TGI (RXF 393 renal): 56.3 µM
- TGI (HS 578T breast): > 100 µM
- TGI (DU-145 prostate): > 100 µM

Structure (SMILES): CC(C)(C)c1cc(C(C)(C)C)c2sc(=O)oc2c1O
- TGI (SK-MEL-28 melanoma): 32.5 µM
- TGI (U251 CNS): 27.8 µM
- TGI (SF-539 CNS): 30.9 µM
- TGI (OVCAR-3 ovarian): 25.9 µM
- TGI (K-562 leukemia): 30.4 µM
- TGI (SNB-19 CNS): 32.2 µM
- TGI (LOX IMVI melanoma): 27.7 µM
- TGI (RXF 393 renal): 26.3 µM
- TGI (HS 578T breast): 31.4 µM
- TGI (DU-145 prostate): 32.8 µM

Structure (SMILES): Cc1cc(C)nc(NS(=O)(=O)c2ccc(NC(=O)c3ccc4nc5ccccc5c(Nc5ccc(S(=O)(=O)N=C(N)N)cc5)c4c3)cc2)n1
- TGI (SK-MEL-28 melanoma): > 100 µM
- TGI (U251 CNS): > 100 µM
- TGI (SF-539 CNS): > 100 µM
- TGI (OVCAR-3 ovarian): > 100 µM
- TGI (K-562 leukemia): > 100 µM
- TGI (SNB-19 CNS): > 100 µM
- TGI (LOX IMVI melanoma): > 100 µM
- TGI (RXF 393 renal): > 100 µM
- TGI (HS 578T breast): > 100 µM
- TGI (DU-145 prostate): > 100 µM

Structure (SMILES): CCOC(=O)C(NC(=O)c1ccccc1)(Nc1ccc(S(=O)(=O)Nc2cc(C)on2)cc1)C(F)(F)F (stereo unspecified)
- TGI (SK-MEL-28 melanoma): > 100 µM
- TGI (U251 CNS): > 100 µM
- TGI (SF-539 CNS): > 100 µM
- TGI (OVCAR-3 ovarian): > 100 µM
- TGI (K-562 leukemia): > 100 µM
- TGI (SNB-19 CNS): > 100 µM
- TGI (LOX IMVI melanoma): > 100 µM
- TGI (RXF 393 renal): > 100 µM
- TGI (HS 578T breast): > 100 µM
- TGI (DU-145 prostate): > 100 µM

Structure (SMILES): COc1ccccc1-c1cc(=O)c2cccnc2[nH]1
- TGI (SK-MEL-28 melanoma): > 100 µM
- TGI (U251 CNS): > 100 µM
- TGI (SF-539 CNS): > 100 µM
- TGI (OVCAR-3 ovarian): > 100 µM
- TGI (K-562 leukemia): > 100 µM
- TGI (SNB-19 CNS): > 100 µM
- TGI (LOX IMVI melanoma): > 100 µM
- TGI (RXF 393 renal): > 100 µM
- TGI (HS 578T breast): > 100 µM
- TGI (DU-145 prostate): > 100 µM

Structure (SMILES): O=C(O)C1C2OC(C(Br)C2Br)C1C(=O)O (stereo unspecified)
- TGI (SK-MEL-28 melanoma): > 100 µM
- TGI (U251 CNS): > 100 µM
- TGI (SF-539 CNS): > 100 µM
- TGI (OVCAR-3 ovarian): > 100 µM
- TGI (K-562 leukemia): > 100 µM
- TGI (SNB-19 CNS): > 100 µM
- TGI (LOX IMVI melanoma): > 100 µM
- TGI (RXF 393 renal): > 100 µM
- TGI (HS 578T breast): > 100 µM
- TGI (DU-145 prostate): > 100 µM

Structure (SMILES): CC(=O)N1CN2C(=O)CCC2c2cc(C)ccc21 (stereo unspecified)
- TGI (SK-MEL-28 melanoma): > 100 µM
- TGI (U251 CNS): > 100 µM
- TGI (SF-539 CNS): > 100 µM
- TGI (OVCAR-3 ovarian): > 100 µM
- TGI (K-562 leukemia): > 100 µM
- TGI (SNB-19 CNS): > 100 µM
- TGI (LOX IMVI melanoma): > 100 µM
- TGI (RXF 393 renal): > 100 µM
- TGI (HS 578T breast): > 100 µM
- TGI (DU-145 prostate): > 100 µM

Structure (SMILES): COc1cc2c(cc1OC)C(C1CC1)ON(C)CC2 (stereo unspecified)
- TGI (SK-MEL-28 melanoma): > 100 µM
- TGI (U251 CNS): > 100 µM
- TGI (SF-539 CNS): > 100 µM
- TGI (OVCAR-3 ovarian): > 100 µM
- TGI (K-562 leukemia): > 100 µM
- TGI (SNB-19 CNS): > 100 µM
- TGI (LOX IMVI melanoma): > 100 µM
- TGI (RXF 393 renal): > 100 µM
- TGI (HS 578T breast): > 100 µM
- TGI (DU-145 prostate): > 100 µM

Structure (SMILES): Cc1cc(C)n(C(C)(C(=O)Cc2ccccc2)n2nc(C)cc2C)n1
- TGI (SK-MEL-28 melanoma): > 100 µM
- TGI (U251 CNS): > 100 µM
- TGI (SF-539 CNS): > 100 µM
- TGI (OVCAR-3 ovarian): > 100 µM
- TGI (K-562 leukemia): > 100 µM
- TGI (SNB-19 CNS): > 100 µM
- TGI (LOX IMVI melanoma): > 100 µM
- TGI (RXF 393 renal): > 100 µM
- TGI (HS 578T breast): > 100 µM
- TGI (DU-145 prostate): > 100 µM

Structure (SMILES): CCOc1ccc(Nc2nc(N)nc(N)c2N=O)cc1
- TGI (SK-MEL-28 melanoma): > 100 µM
- TGI (U251 CNS): > 100 µM
- TGI (SF-539 CNS): > 100 µM
- TGI (OVCAR-3 ovarian): > 100 µM
- TGI (K-562 leukemia): > 100 µM
- TGI (SNB-19 CNS): > 100 µM
- TGI (LOX IMVI melanoma): > 100 µM
- TGI (RXF 393 renal): > 100 µM
- TGI (HS 578T breast): > 100 µM
- TGI (DU-145 prostate): > 100 µM

Structure (SMILES): CC1=NN(C(=O)CC(=O)Nc2cccc(C)c2)C(=O)C1N=Nc1ccc(C(=O)O)cc1 (stereo unspecified)
- TGI (SK-MEL-28 melanoma): > 100 µM
- TGI (U251 CNS): > 100 µM
- TGI (SF-539 CNS): > 100 µM
- TGI (OVCAR-3 ovarian): > 100 µM
- TGI (K-562 leukemia): > 100 µM
- TGI (SNB-19 CNS): > 100 µM
- TGI (LOX IMVI melanoma): > 100 µM
- TGI (RXF 393 renal): > 100 µM
- TGI (HS 578T breast): > 100 µM
- TGI (DU-145 prostate): > 100 µM

Structure (SMILES): O=C(CCCCCCCCC(=O)N1C(=O)CC(=O)N(c2ccc(Cl)cc2)C1=S)N1C(=O)CC(=O)N(c2ccc(Cl)cc2)C1=S
- TGI (SK-MEL-28 melanoma): > 100 µM
- TGI (U251 CNS): > 100 µM
- TGI (SF-539 CNS): > 100 µM
- TGI (OVCAR-3 ovarian): > 100 µM
- TGI (K-562 leukemia): > 100 µM
- TGI (SNB-19 CNS): > 100 µM
- TGI (LOX IMVI melanoma): > 100 µM
- TGI (RXF 393 renal): > 100 µM
- TGI (HS 578T breast): > 100 µM
- TGI (DU-145 prostate): > 100 µM

Structure (SMILES): CC1OC23CCCCC2C(C#N)(C#N)C1(C#N)C(=N)O3 (stereo unspecified)
- TGI (SK-MEL-28 melanoma): 56 µM
- TGI (U251 CNS): 71.5 µM
- TGI (SF-539 CNS): 45.1 µM
- TGI (OVCAR-3 ovarian): 36.5 µM
- TGI (K-562 leukemia): > 100 µM
- TGI (SNB-19 CNS): 65.2 µM
- TGI (LOX IMVI melanoma): 40.2 µM
- TGI (RXF 393 renal): 44.5 µM
- TGI (HS 578T breast): 57.8 µM
- TGI (DU-145 prostate): 66.5 µM
